Reference: patent publication US20260306640A1, “TECHNOLOGIES TARGETING CELL STATES” (Auron Therapeutics, Inc., priority 2023, published 2026)
Read-outs that look alike come from different tables or passages of the source.

Tests used:
[1] = target: KAT2B (Homo sapiens, UniProt Q92831); assay: Western blot of KAT2B level in NCI-H1048 cells, 24 h; type: cell-based; parameters: degrader, Western blot; settings: various concentrations, FIG. 1 (B)
Method: (§1) FIG. 1. Provided compounds can provide various activities including inhibiting tumor growth in vivo. (A): Provided compounds can inhibit tumor growth in vivo. Nude Balb/c mice were inoculated with NCI-H1048 cells in Matrigel. Tumors were allowed to grow up to about 200 mm^3 and mice were then randomized into two groups. Mice were dosed intraperitoneally (i.p.) once per week with vehicle or 30 mg/kg compound 22. Tumor size was measured every three to four days and mice were sacrificed once vehicle tumors reached 2000 mm^3. Error bar is SEM. Dosing started at day 17 post tumor inoculation. (B): Provided technologies can reduce KAT2A and KAT2B levels and histone acetylation levels. […] Vehicle is DMSO. […] Cell count data relative to DMSO control after 8 days of treatment with compound 22 are presented as examples to confirm inhibition. GI50=6 nM. (D): Provided technologies can inhibit tumor growth in vivo. Nude balb/c mice inoculated with H1048 tumors were dosed intraperitoneally once per week (qw i.p.) with vehicle (HbCD) or compound 22. Average tumor volumes+/−SEM from 6 mice are represented. […] See also (A). […] Certain body weights relative to starting weight are presented as examples to confirm tolerability and safety. (F): Provided technologies can reduce KAT2A and KAT2B levels and histone acetylation levels in tumor in vivo. […]

[2] = test system: NCI-H1048 tumors; assay: Tumor growth inhibition in nude Balb/c mice bearing NCI-H1048 tumors; type: in vivo; settings: 30 mg/kg, once per week i.p.; average tumor volumes from 6 mice; FIG. 1 (D)
Method: as §1

[3] = target: T1, KAT2A (Homo sapiens, UniProt Q92830); assay: KAT2A degradation, Western Blot (Jess), NCI-H1048 cells; type: cell-based; parameters: degrader, Western blot (Jess)
Outline: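 DC50 came from protein loss relative to DMSO, measured by Jess capillary immunoblot of RIPA lysates with chemiluminescence read-out. Before lysis, NCI-H1048 cells in 5% FBS HITES medium were exposed to compound for 24 h at 37° C.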

[4] = test system: histone acetylation; assay: Western blot of histone acetylation in neuroendocrine prostate cancer LASCPC-01 cells, 24 hours; type: cell-based; settings: FIG. 3 (A)
Method: (§2) FIG. 3. Provided compounds can provide various activities. (A): Provided technologies can reduce KAT2A and KAT2B levels and histone acetylation levels. […] Cell viability (Cell Titer Glo) data relative to DMSO control after 7 days of treatment with compound 22 are presented as examples to confirm inhibition. GI50=5 nM. (C): Provided technologies can modulate cell states and induce differentiation. […] (D): Provided technologies can reduce KAT2A and KAT2B levels and histone acetylation levels including in neuroendocrine prostate cancer primary patient organoid. […] Concentrations are nM. […] Cell viability data relative to DMSO control after 21 days of treatment with compound 22 are presented as examples to confirm inhibition. GI50=3 nM. (F): Provided technologies can modulate cell states and induce differentiation.

[5] = target: T1, KAT2A; assay: Western blot of KAT2A level in neuroendocrine prostate cancer LASCPC-01 cells, 24 hours; type: cell-based; parameters: degrader, Western blot; settings: FIG. 3 (A)
Method: as §2

T1 sequence (Q92830 whole entry): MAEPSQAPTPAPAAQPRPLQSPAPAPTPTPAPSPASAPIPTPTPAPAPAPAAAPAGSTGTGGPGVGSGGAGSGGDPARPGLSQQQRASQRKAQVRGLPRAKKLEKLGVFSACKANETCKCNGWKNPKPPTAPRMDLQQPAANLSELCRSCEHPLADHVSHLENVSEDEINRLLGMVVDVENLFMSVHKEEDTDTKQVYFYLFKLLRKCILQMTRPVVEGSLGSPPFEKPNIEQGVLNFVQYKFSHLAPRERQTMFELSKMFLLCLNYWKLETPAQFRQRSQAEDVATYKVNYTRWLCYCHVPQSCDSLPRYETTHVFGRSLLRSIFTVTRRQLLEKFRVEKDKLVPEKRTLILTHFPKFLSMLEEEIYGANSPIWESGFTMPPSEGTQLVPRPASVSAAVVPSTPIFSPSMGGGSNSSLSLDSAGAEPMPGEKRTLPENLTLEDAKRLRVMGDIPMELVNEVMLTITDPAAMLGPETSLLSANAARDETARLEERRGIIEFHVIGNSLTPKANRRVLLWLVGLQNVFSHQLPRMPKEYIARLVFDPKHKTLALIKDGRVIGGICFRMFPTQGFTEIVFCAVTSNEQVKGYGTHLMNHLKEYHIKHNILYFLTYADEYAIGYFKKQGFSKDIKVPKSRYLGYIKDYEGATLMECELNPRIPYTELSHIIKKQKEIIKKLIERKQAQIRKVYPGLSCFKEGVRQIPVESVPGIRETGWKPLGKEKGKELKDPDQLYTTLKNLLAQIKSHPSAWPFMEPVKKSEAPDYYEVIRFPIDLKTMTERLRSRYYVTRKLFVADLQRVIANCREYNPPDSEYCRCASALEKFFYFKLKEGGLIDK
Sequence of KAT2B (Q92831 whole entry): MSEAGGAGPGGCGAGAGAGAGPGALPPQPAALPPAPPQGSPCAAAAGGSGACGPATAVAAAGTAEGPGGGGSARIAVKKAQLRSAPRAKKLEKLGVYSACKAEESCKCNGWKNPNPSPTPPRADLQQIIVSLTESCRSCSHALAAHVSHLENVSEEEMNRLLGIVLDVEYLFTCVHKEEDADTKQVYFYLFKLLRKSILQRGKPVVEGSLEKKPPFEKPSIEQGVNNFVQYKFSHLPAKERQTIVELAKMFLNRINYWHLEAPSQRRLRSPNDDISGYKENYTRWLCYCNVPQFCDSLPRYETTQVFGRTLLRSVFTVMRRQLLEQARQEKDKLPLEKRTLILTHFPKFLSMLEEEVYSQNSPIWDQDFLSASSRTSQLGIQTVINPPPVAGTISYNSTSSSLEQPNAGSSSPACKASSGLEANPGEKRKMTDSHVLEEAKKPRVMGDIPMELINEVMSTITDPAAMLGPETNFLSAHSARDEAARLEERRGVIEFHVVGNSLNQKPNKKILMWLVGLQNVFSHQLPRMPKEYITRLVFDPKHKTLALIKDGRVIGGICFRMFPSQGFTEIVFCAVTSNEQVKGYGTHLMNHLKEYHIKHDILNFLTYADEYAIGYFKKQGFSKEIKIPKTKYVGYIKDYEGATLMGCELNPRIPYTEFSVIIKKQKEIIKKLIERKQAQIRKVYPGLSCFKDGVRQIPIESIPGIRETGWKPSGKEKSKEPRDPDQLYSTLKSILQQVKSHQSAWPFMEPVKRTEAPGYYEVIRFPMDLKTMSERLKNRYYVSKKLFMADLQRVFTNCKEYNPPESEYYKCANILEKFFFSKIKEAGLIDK

reduction of KAT2B level [1]: confirm such reduction | EC90 ([3]; 24 h, NCI-H1048, KAT2A, read-out: DC90 (the source's name)): 0.29 nM | DC50 ([3]; NCI-H1048, KAT2A, read-out: DC50): 0.01 nM | KAT2A levels ([3]; NCI-H1048 cells, FIG. 1): potently reduce KAT2A and KAT2B levels | DC50 ([3]; NCI-H1048 cells, KAT2A, 24 h, Western Blot, vs DMSO, read-out: KAT2A NCI-H1048 DC50): < 1 nM | reduction of KAT2A level [5]: confirm such reduction
SMILES: CN1C[C@H](Nc2cnn(C)c(=O)c2Br)C[C@H](c2ccc(C(=O)N3CCC(CN4CCN(c5ccc6c(c5)CN(C5CCC(=O)NC5=O)C6=O)CC4)CC3)cc2)C1 (stereo partly drawn) [Compound 22, 3-(5-(4-((1-(4-((3R,5R)-5-((5-bromo-1-methyl-6-oxo-1,6-dihydropyridazin-4-yl)amino)-1-methylpiperidin-3-yl)benzoyl)piperidin-4-yl)methyl)piperazin-1-yl)-1-oxoisoindolin-2-yl)piperidine-2,6-dione]
tumor growth inhibition [2]: 70% | reduction of histone acetylation level [4]: confirm such reduction
